# From ChEMBL document CHEMBL5137013 (Eur J Med Chem, 2022)
# Activity calls are given as the source filed them. No cut-off for these calls is given here.
# What was measured:
# [1] = Half-life in Sprague-Dawley rat at 10 mg/kg, iv by HPLC-MS/MS analysis; format: ADME, organism-based; settings: in vivo
# HT-29 [2] = test: Induction of apoptosis in human HT-29 cells assessed as down regulation of Bim expression at 25 to 100 nM measured after 24 hrs by Western blot analysis; format: functional, cell-based; settings: dose 25-100 nM
# HT-29 [3] = test: Induction of apoptosis in human HT-29 cells assessed as up regulation of phosphorylated Bcl-2 expression at 25 to 100 nM measured after 24 hrs by Western blot analysis; format: functional, cell-based; settings: dose 25-100 nM
# [4] = Cytotoxicity against human A549/TxR cells assessed as reduction in cell viability measured after 24 hrs by MTT assay; format: functional, cell-based
# [5] = Toxicity in human HT-29 cells xenografted BALB/c nude mouse assessed as body weight loss at 5 to 10 mg/kg, ip administered as 2 days interval for 3 weeks and measured 3 times a week during compound dosing; format: organism-based; settings: in vivo, 504 h, dose 5-10 mg/kg
# HUVEC = test: Antiangiogenic activity in HUVEC assessed as inhibition of tube formation at 12.5 to 50 nM incubated for 24 hrs by matrigel assay; format: functional, cell-based; settings: Homo sapiens, dose 12.5-50 nM
# HT-29 [6] = test: Induction of apoptosis in human HT-29 cells assessed as increase in cleaved PARP expression at 25 to 100 nM measured after 24 hrs by Western blot analysis; format: functional, cell-based; settings: dose 25-100 nM
# MDA-MB-231 = test: Cytotoxicity against human MDA-MB-231 cells assessed as reduction in cell viability measured after 24 hrs by MTT assay; format: functional, cell-based; settings: MDA-MB-231, 24 h
# HT-29 [7] = test: Induction of apoptosis in human HT-29 cells assessed as up regulation of Bax expression at 25 to 100 nM measured after 24 hrs by Western blot analysis; format: functional, cell-based; settings: dose 25-100 nM
# [8] = Toxicity in human HT-29 cells xenografted BALB/c nude mouse assessed as effect on spleen at 5 to 10 mg/kg, ip administered as 2 days interval for 3 weeks and measured 3 weeks post-initial dosing by H and E staining based histopathological analysis; format: organism-based; settings: in vivo, 504 h, dose 5-10 mg/kg
# HT-29 [9] = test: Induction of apoptosis in human HT-29 cells assessed as increase in PARP expression at 25 to 100 nM measured after 24 hrs by Western blot analysis; format: functional, cell-based; settings: dose 25-100 nM
# [10] = Toxicity in human HT-29 cells xenografted BALB/c nude mouse assessed as effect on heart at 5 to 10 mg/kg, ip administered as 2 days interval for 3 weeks and measured 3 weeks post-initial dosing by H and E staining based histopathological analysis; format: organism-based; settings: in vivo, 504 h, dose 5-10 mg/kg
# HT-29 [11] = test: Induction of apoptosis in human HT-29 cells assessed as down regulation of phosphorylated histone H3 expression at 25 to 100 nM measured after 24 hrs by Western blot analysis; format: functional, cell-based; settings: dose 25-100 nM
# Sus scrofa = organism: Sus scrofa; test: (§1) Inhibition of porcine brain tubulin polymerization measured at 1 min interval for 60 mins by fluorescence assay; settings: dose 1.25-5 µM, DDE = dose-dependent effect
# [12] = as §1; set-up: species or system Sus scrofa
# A549 = test: Cytotoxicity against human A549 cells assessed as reduction in cell viability measured after 24 hrs by MTT assay; settings: A549, 24 h
structure (smiles),measurement,setting,value
COC(=O)c1cc2c(cc1Nc1cc(OC)c(OC)c(OC)c1)OCCO2,t1/2,[1],1.73 h
same,Activity,HT-29 [2],Active
same,Activity,HT-29 [3],Active
same,IC50,[4],310 nM
same,Activity,[5],Non-Toxic
same,inhibition,HUVEC,Active
same,Activity,HT-29 [6],Active
same,IC50,MDA-MB-231,100 nM
same,Activity,HT-29 [7],Active
same,Activity,[8],Non-Toxic
same,Activity,HT-29 [9],Active
same,Activity,[10],Non-Toxic
same,Activity,HT-29 [11],Active
same,inhibition,Sus scrofa,Dde
same,IC50,[12],1090 nM
same,IC50,A549,240 nM
